Tests used:
HIV protease = HIV protease (Human immunodeficiency virus type 1 group M subtype B, UniProt P04585); assay: biochemical
Excerpt: The procedure is based on the capacity of the test compound to inhibit enzymatic cleavage by HIV protease of a decapeptide (the substrate) having an amino acid sequence which includes a known HIV protease cleavage site of a HIV polyprotein; see H.G. Krausslich et al., Proc. Natl. Acad. Sci. USA, 86,807(1989).
Recombinant HIV Protease HPLC Assay: Enzyme: HIV protease was expressed in E. coli [construct pBRT1 prt⁺, see W.G. Farmerie et al., Science, 236, 305 (1987)], according to the following protocol: Unless stated otherwise, all solutions are aqueous solutions.
E. coli cells containing the pBRT1 prt⁺ plasmid were used to inoculate a seed culture media composed of Luria-Bertani Broth containing 100µg/mL of ampicillin. Flasks were incubated at 37° under agitation for 17 h. Production flasks containing sterile M9 broth, supplemented with 100µg/ml of ampicillin, were inoculated at a level of 1% (v/v) using the seed culture described above. Total volume in each production flask was 500 mL in a 2 L Erlenmeyer flask. Flasks were incubated at 37° under agitation until a cell concentration corresponding to an optical density (λ= 540 m) of 0.6 was reached (no dilution). This time span was routinely 3-4 h. Flasks were then supplemented with 5mM isopropylthiogalactoside (IPTG, Research Organics, Cleveland, Ohio, USA) and incubation was continued until the cell concentration reached an optical density of 0.2 at 16-fold dilution. Flasks were then supplemented with 1mM phenylmethylsulfonyl fluoride (PMSF) and rapidly chilled to 4°. The bacterial cells were recovered by centrifugation at 4°. The wet pellet was stored at -70°.
All steps below were performed at 4° unless otherwise indicated. Thawed cells were mixed with buffer A [50 mM […] HCl(Tris-HCl, pH 7.4); 0.6 mM ethylenediaminetetraacetic acid (EDTA); 0.375 M NaCl, 0.2% Nonidet P-40 ^R (BDH Chemicals Ltd., Poole, UK); 1mM PMSF], at a ratio of one part cells to nine parts buffer A. Diatomaceous earth (Celite 545 ^R , John Manville, Lompoc, CA, USA) was added at a ratio of two parts to one part of wet cell weight. The resulting slurry was homogenized at high speed (ca. 20,000 rpm) on a Waring ^R industrial blender for 8 x 15 sec. pulses. Cell debris/Celite ^R was collected by centrifugation and the resulting pellet was extracted with 4.5 parts of buffer A to one part wet solids using the homogenization procedure described above. Supernatants from both homogenization steps were combined and soluble protein was precipitated by the addition of solid (NH₄)₂SO₄ to yield a final concentration of 75% saturation. This mixture was agitated for 60 min and the precipitate was recovered by centrifugation. The resulting pellet was suspended in buffer B [50mM Tris-HCl, pH 8; 30 mM NaCl; 1 mM DL-dithio-threitol (DTT); 1 mM EDTA; 1 mM PMSF; 10% glycerol], and dialyzed for 18h against the same buffer.
An aliquot of the dialyzed extract containing 150 mg of the protein was loaded onto a Sephadex A25 ^R anion exchange column. (Pharmacia, Uppsala, Sweden) with bed dimensions of 70 cm length and 2.5 cm diameter. The sample was eluted isocratically with buffer B at a linear flow rate of 10 cm/h. Fractions containing HIV protease activity (see below for assay description) were combined, and soluble protein was precipitated by the addition of saturated aqueous (NH₄)₂SO₄ to yield a total (NH₄)₂SO₄ concentration of 85% saturation. Precipitated protein was removed by centrifugation and the resulting pellet was dissolved in buffer C [50 mM 2-(4-morpholino)ethanesulfonic acid (MES), pH 5.5; 150 mM NaCl; 1 mM DTT; 1 mM EDTA; 10% glycerol]. This preparation was dialyzed for 18h against buffer C, and then frozen at -70°. All crude extracts were purified by chromatography in aliquots containing 150 mg of protein in the same manner as described above. The final preparations from each batch were pooled, divided into 34µL aliquots and stored at -70°.

HIV = conditions: at 20µg/mL; C8166 cells, H9/HTLV-IIIB, 72 h
Experimental: The following protocol, used for screening antiviral effects of the compounds of formula 1, is adapted from a plaque assay utilizing HTLV-I transformed cells which was developed by Harada et al., supra. HTLV-I transformed cells are used in these assays because of the rapidity with which HIV will replicate in these cells. • 1. The test compound is dissolved in dimethylsulfoxide to a concentration of 5 mg/mL. The resultant solution can be stored at 4° until used. • 2. The resultant solution is diluted in RPMI 1640 (Gibco Laboratories, St. Lawrence, MA, USA) to four times (4x) the final concentration which is to be tested. Once diluted in RPMI 1640, the solution is used in the cell culture assay within 4 h. • 3. The 4x solution (50µL) is added to triplicate wells of a 96 well flat bottomed microtiter plate. RPMI 50µL also is added to control wells. • 4. C8166 cells (5 x 10⁻⁴) in 50 µL of HEPES-buffered RPMI 1640, 10% heat inactivated fetal calf serum (FCS), 12.5µL/ml gentamicin (complete media) are added to all wells. • 5. […] Infectious titer of virus stocks are as previously determined by end point dilution on C8166 cells. […] Plates are then removed and centers of syncytia are counted in each well by low power phase contrast light microscopy. […] Percent inhibition of syncytia formation is calculated by the formula: [formula]

Structure (SMILES) | IC50 (HIV protease) | inhibition of syncytia formation (HIV)
CC(C)C[C@H](NC(=O)C[C@H](O)[C@H](CC1CCCCC1)NC(=O)[C@@H](NC(=O)CCc1ccc(OCC(=O)OCc2ccccc2)cc1)C(C)C)C(=O)N[C@@H](Cc1ccccc1)C(N)=O [Example 2, [4-(BzlOC(O)CH₂O)Ph]CH₂CH₂C(O)-Val-ACHPA-Leu-Phe-NH₂] | 170 nM | 
CC(C)C[C@H](NC(=O)C[C@H](O)[C@H](CC1CCCCC1)NC(=O)[C@@H](NC(=O)[C@@H](O)CO)C(C)C)C(=O)N[C@@H](Cc1ccccc1)C(N)=O [Example 4, [(S)-HOCH₂CH(OH)C(O)]-Val-ACHPA-Leu-Phe-NH₂] | 180 nM | 
CC(=O)N[C@H](C(=O)N[C@@H](CC1CCCCC1)[C@@H](O)CC(=O)N[C@@H](CC(C)C)C(=O)N[C@@H](Cc1ccccc1)C(N)=O)C(C)C [Example 5, Ac-Val-ACHPA-Leu-Phe-NH₂] | 280 nM | 97%
CC(=O)N[C@H](C(=O)N[C@@H](CC1CCCCC1)[C@@H](O)CC(=O)N[C@@H](CC(C)C)C(=O)N[C@@H](Cc1ccccc1)C(N)=O)C(C)(C)C [Example 11, Ac-Tbg-ACHPA-Leu-Phe-NH₂] | 200 nM | 72%
CC[C@H](C)[C@H](NC(=O)[C@H](CCC(=O)O)NC(=O)[C@H](CC(C)C)NC[C@H](Cc1ccccc1)NC(=O)[C@@H](NC(C)=O)C(C)C)C(N)=O [Example 12, Ac-Val-Pheψ[CH₂NH]Leu-Glu-Ile-NH₂] | 6.7 nM | 
CC[C@H](C)[C@H](NC(=O)[C@H](CCC(N)=O)NC(=O)[C@H](CC(C)C)NC[C@H](Cc1ccccc1)NC(=O)[C@@H](NC(C)=O)[C@@H](C)CC)C(N)=O [Example 16, Ac-Ile-Pheψ[CH₂NH]Leu-Gln-Ile-NH₂] | 180 nM | 
CC[C@H](C)[C@H](NC(=O)[C@H](CCC(N)=O)NC(=O)[C@H](CC(C)C)NC[C@H](Cc1ccccc1)NC(=O)[C@@H](NC(=O)[C@H](C)O)C(C)C)C(N)=O [Example 19, [(S)-CH₃CH(OH)C(O)]-Val-Pheψ[CH₂NH]Leu-Gln-Ile-NH₂] | 660 nM | 
CC[C@H](C)[C@H](NC(=O)[C@H](CCC(N)=O)NC(=O)[C@H](CC(C)(C)C)NC[C@H](Cc1ccccc1)NC(=O)[C@@H](NC(C)=O)C(C)C)C(N)=O [Example 21, Ac-Val-Pheψ[CH₂NH]Tba-Gln-Ile-NH₂] | 720 nM | 
CC(=O)N[C@H](C(=O)N[C@H](CN[C@@H](CC(C)C)C(=O)N[C@H](C(=O)N[C@@H](COCc1ccccc1)C(N)=O)C(C)C)Cc1ccccc1)C(C)C [Example 22, Ac-Val-Pheψ[CH₂NH]Leu-Val-Ser(OBzl)-NH₂] | 29 nM | 

Reference: EP0443559A2, “HIV protease inhibiting agents” (BIO-MEGA/BOEHRINGER INGELHEIM RESEARCH INC., priority 1990, dated 1991)
